According to patent publication US11130726B2, “Therapeutic compounds and methods of use thereof” (GENENTECH, INC., priority 2015, dated 2021):

Molecular target: T1, hNav1.7 (Homo sapiens, UniProt Q15858)
T1 construct: expressed in transfected cells
Assay: Tritiated compound competitive binding to membranes from cells heterologously expressing hNav1.7 and the β1 subunit (LBA)
Details: read-out: NaV1.7 (LBA)
Procedure: Example 19 Tritiated Compound Binding to Membranes Isolated from Cells that Heterologously Express hNav1.7 and the β1 Subunit
Preparation of membranes containing recombinantly expressed sodium channels: Frozen recombinant cell pellets were thawed on ice and diluted to 4 times the cell pellet weight with ice cold 50 mM Tris HCl, pH 7.4 buffer. The cell suspensions were homogenized on ice using a motorized glass dounce homogeniser. Homogenates were further diluted 8.4 times with ice cold 50 mM Tris HC1, pH 7.4 buffer and then centrifuged at 200× g at 4° C. for 15 min. The supernatants were collected and centrifuged at 10000× g at 4° C. for 50 min. The pellets were then re-suspended in 100 mM NaCl, 20 mM Tris HCl, pH 7.4 buffer containing 1% v/v protease inhibitors (Calbiochem) and re-homogenized on ice. The homogenized membranes were then processed through a syringe equipped with a 26 gauge needle. Protein concentrations were determined by Bradford Assay and the membranes were stored at −80° C.
Radioligand Binding Studies: Saturation experiments. A competitive NaV1.7 inhibitor having a methyl group was tritiated. Three tritiums were incorporated in place of methyl hydrogens to generate[^3H]compound. Binding of this radioligand was performed in 5 mL borosilicate glass test tubes at room temperature. Binding was initiated by adding membranes to increasing concentrations of [^3H]compound in 100 mM NaCl, 20 mM Tris HCl, pH 7.4 buffer containing 0.01% w/v bovine serum albumin (BSA) for 18 h. Non-specific binding was determined in the presence of 1 μM unlabeled compound. After 18 h, the reactants were filtered through GF/C glass fiber filters presoaked in 0.5% w/v polyethylene imine. Filters were washed with 15 mL ice cold 100 mM NaCl, 20 mM Tris HCl, pH7.4 buffer containing 0.25% BSA to separate bound from free ligand. [^3H]compound bound to filters was quantified by liquid scintillation counting.
Competitive binding experiments: Binding reactions were performed in 96-well polypropylene plates at room temperature for 18 h. In 360 μL, membranes were incubated with 100 pM [^3H]compound and increasing concentrations of Test Compound. Non-specific binding was defined in the presence of 1 μM unlabeled compound. Reactions were transferred and filtered through 96-well glass fiber/C filter plates presoaked with 0.5% polyethylene imine. The filtered reactions were washed 5 times with 200 μL ice cold buffer containing 0.25% BSA. Bound radioactivity was determined by liquid scintillation counting.
Data Analysis: For saturation experiments, non-specific binding was subtracted from total binding to provide specific binding and these values were recalculated in terms of pmol ligand bound per mg protein. Saturation curves were constructed and dissociation constants were calculated using the single site ligand binding model: Beq=(Bmax*X)/(X+Kd), where Beq is the amount of ligand bound at equilibrium, Bmax is the maximum receptor density, Kd is the dissociation constant for the ligand, and X is the free ligand concentration. For competition studies percent inhibition was determined and IC50 values were calculated using a 4 parameter logistic model (% inhibition=(A+((B−A)/(1+((x/C)^D)))) using XLfit, where A and B are the maximal and minimum inhibition respectively, C is the IC50 concentration and D is the (Hill) slope.

T1 sequence (Q15858 whole entry): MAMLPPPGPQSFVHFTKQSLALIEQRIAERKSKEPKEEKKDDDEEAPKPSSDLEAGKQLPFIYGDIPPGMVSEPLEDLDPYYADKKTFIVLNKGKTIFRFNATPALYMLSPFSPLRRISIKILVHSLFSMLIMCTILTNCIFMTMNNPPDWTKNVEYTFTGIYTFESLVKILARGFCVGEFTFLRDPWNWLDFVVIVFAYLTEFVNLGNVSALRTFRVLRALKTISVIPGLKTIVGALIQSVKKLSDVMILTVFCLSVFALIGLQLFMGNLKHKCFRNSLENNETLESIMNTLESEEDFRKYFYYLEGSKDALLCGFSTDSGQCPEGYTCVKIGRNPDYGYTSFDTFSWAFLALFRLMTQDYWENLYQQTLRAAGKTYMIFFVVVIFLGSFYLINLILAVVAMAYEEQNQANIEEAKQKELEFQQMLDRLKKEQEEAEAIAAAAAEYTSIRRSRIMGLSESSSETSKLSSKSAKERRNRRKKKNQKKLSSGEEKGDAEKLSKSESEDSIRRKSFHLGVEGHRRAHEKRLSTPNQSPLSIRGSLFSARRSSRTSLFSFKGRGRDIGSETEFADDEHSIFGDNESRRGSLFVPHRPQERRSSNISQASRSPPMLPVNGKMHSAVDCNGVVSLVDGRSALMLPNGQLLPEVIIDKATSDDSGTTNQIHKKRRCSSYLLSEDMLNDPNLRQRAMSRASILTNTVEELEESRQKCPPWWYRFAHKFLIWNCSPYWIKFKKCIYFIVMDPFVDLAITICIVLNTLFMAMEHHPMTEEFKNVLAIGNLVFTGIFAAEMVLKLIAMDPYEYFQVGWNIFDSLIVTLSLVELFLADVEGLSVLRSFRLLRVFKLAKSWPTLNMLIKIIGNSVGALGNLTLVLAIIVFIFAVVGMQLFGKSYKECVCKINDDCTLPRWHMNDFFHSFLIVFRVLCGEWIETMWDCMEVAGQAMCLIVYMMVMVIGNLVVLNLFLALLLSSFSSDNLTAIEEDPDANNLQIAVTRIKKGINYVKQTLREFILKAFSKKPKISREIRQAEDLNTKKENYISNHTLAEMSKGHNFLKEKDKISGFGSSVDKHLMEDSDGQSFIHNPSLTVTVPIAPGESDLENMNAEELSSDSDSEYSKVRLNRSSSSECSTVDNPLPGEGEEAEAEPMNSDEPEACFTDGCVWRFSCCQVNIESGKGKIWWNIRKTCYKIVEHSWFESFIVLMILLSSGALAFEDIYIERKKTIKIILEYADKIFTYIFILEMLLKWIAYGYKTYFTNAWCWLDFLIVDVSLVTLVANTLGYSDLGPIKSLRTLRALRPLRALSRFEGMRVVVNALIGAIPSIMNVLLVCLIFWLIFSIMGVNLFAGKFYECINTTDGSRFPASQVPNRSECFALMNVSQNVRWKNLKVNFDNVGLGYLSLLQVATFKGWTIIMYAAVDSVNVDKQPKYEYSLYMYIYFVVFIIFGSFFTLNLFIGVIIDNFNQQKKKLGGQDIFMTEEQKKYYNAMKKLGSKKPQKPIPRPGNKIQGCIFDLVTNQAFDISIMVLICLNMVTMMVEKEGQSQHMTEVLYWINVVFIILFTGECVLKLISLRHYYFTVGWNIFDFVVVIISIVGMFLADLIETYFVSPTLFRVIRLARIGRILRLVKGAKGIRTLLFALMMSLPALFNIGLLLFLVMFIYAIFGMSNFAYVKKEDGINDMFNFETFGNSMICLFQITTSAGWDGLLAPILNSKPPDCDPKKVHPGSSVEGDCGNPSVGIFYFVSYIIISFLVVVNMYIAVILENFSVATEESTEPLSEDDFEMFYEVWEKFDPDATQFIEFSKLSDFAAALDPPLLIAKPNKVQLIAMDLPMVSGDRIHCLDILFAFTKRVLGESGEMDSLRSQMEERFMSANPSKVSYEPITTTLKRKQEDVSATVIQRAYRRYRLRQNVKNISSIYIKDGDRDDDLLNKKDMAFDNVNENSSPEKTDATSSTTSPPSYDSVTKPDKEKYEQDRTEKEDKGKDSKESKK
T1 sequence (Q07699 19-218 partner): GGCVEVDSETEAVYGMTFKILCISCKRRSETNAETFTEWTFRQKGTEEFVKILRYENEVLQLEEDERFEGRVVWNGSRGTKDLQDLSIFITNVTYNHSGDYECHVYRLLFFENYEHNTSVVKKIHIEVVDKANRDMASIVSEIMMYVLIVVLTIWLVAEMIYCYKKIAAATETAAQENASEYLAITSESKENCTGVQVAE

IC50 [nM] | SMILES
51 | C[C@@H](c1cc(Cl)cc(Cl)c1)N1CCC(COc2cc(F)c(C(=O)[C@@H]3CCC[C@H]3C(=O)O)cc2C2CC2)CC1 [Example 9, (1,2-trans)-2-(5-cyclopropyl-4-((1-((S)-1-(3,5-dichlorophenyl)ethyl)piperidin-4-yl)methoxy)-2-fluorobenzoyl)cyclopentane-1-carboxylic acid]
> 10000 | CN(c1cc(Cl)c(OCC23C[C@H]4C[C@@H](C2)C[C@@H](C3)C4)cc1F)[C@@H]1CCC[C@H]1C(=O)O (relative stereo) [Example 18, 2-(4-(1-adamantylmethoxy)-5-chloro-2-fluoro-N-methylanilino)-cyclopentanecarboxylic acid]
700 | C[C@H]1CC[C@@H](C(=O)c2cc(C3CC3)c(OCC34CC5CC(CC(C5)C3)C4)cc2F)[C@@H]1C(=O)O [Example 11]
454 | O=C(O)[C@@H]1CCC[C@H]1S(=O)(=O)c1cc(Cl)c(OCC23CC4CC(CC(C4)C2)C3)cc1F (racemic) [Example 15]
3 | C[C@@H]1CC[C@H](C(=O)c2cc(C3CC3)c(OCC34CC5CC(CC(C5)C3)C4)cc2F)[C@H]1C(=O)O [Example 12]
55 | O=C(O)[C@@H]1CCCC[C@H]1C(=O)c1cc(C2CC2)c(OCC23CC4CC(CC(C4)C2)C3)cc1F [Example 6]
21 | O=C(O)[C@@H]1CCC[C@H]1C(=O)c1cc(C2CC2)c(COc2cc(Cl)cc(Cl)c2)cc1F (relative stereo) [Example 10, (1,2-trans)-2-(5-cyclopropyl-4-((3,5-dichlorophenoxy)methyl)-2-fluorobenzoyl)cyclopentane-1-carboxylic acid]
760 | O=C(O)[C@@H]1CC[C@H]1C(=O)c1cc(C2CC2)c(OCC23CC4CC(CC(C4)C2)C3)cc1F (racemic) [Example 7]
21 | O=C(O)[C@@H]1CCC[C@H]1C(=O)c1cc(C2CC2)c(OCC2CCN(Cc3cc(C(F)(F)F)ccc3Cl)CC2)cc1F [Example 13, (1R,2R)-2-(4-((1-(2-chloro-5-(trifluoromethyl)benzyl)piperidin-4-yl)methoxy)-5-cyclopropyl-2-fluorobenzoyl)cyclopentane-1-carboxylic acid]
1290 | O=C(O)[C@@H]1CCC[C@H]1[S+]([O-])c1cc(Cl)c(OCC23CC4CC(CC(C4)C2)C3)cc1F (stereo in doubt) [Example 16]
860 | O=C(O)[C@@H]1CCC[C@H]1C(=O)c1cc(C2CC2)c(OCc2ccccc2)cc1F (relative stereo) [Example 8, trans-2-(4-(benzyloxy)-5-cyclopropyl-2-fluorobenzoyl)-cyclopentane-1-carboxylic acid]

The next lines start with the compound.

SMILES | IC50 [nM]
O=C(O)C1CCCC1Sc1cc(Cl)c(OCC23CC4CC(CC(C4)C2)C3)cc1F (stereo not drawn) [Example 14] | 2630
O=C(O)C1CCCC1Nc1cc(Cl)c(OCC23CC4CC(CC(C4)C2)C3)cc1F (stereo not drawn) [Example 17, 2-((4-adamant-1-ylmethoxy)-5-chloro-2-fluoro-anilino)cyclopentanecarboxylic acid] | 3020
O=C(c1cc(Cl)c(OCC23CC4CC(CC(C4)C2)C3)cc1F)[C@H]1CCC[C@H]1C(=O)O [Example 3] | 4200
O=C(O)[C@@H]1CCC[C@H]1Cc1cc(C2CC2)c(OCC23CC4CC(CC(C4)C2)C3)cc1F [Example 5] | 3100
O=C(O)[C@@H]1CCC[C@H]1C(=O)c1cc(C2CC2)c(OCC23CC4CC(CC(C4)C2)C3)cc1F [Example 1] | 9
O=C(O)[C@@H]1CCC[C@H]1C(=O)c1cc(Cl)c(OCC23CC4CC(CC(C4)C2)C3)cc1F [Example 4] | 440
O=C(O)[C@H]1CCC[C@@H]1C(=O)c1cc(C2CC2)c(OCC23CC4CC(CC(C4)C2)C3)cc1F [Example 2] | 510
